Assay results taken from ChEMBL document CHEMBL2202982, “Synthesis and SAR development of novel mGluR1 antagonists for the treatment of chronic pain” (Bioorg Med Chem Lett, 2012).

Experiment: in vivo
Settings: rat, po

Row | Compound | AUC(0-t) at 6 h
1 | Cc1ccc(-n2cnc3c(sc4ncnc(NC5CC5)c43)c2=O)cc1 | 0.89 µM·h
2 | COc1ccc(-n2cnc3c(sc4ncnc(NC5CC5)c43)c2=O)cc1F | 8.6 µM·h
